Data: paper PMC10023787, “Trio-pharmacophore DNA-encoded chemical library for simultaneous selection of fragments and linkers” (Nature Communications, 2023)

Tests used:
MMP-9 = molecular target: T1, MMP-9 (Homo sapiens, UniProt P14780); assay: MMP-9 inhibition assay (fluorogenic peptide substrate); format: biochemical; conditions: Figure 5d; fragment combination joined by linker; n.d: not detected; read-out: MMP9 IC50
T1 construct: purchased Sino Biological 10327-HNAH
Method in brief: (§1)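 Hydrolysis of DNP-Pro-Leu-Gly-Met-Trp-Ser-Arg (25 μM final) was tracked kinetically at em 360 nm over 30 min. Enzymes, APMA-activated and at 10 nM (MMP-9) or 6.5 nM (MMP-2) final, sat 30 min at RT with inhibitor in pH 7.5 Tris buffer with CaCl2 and Brij 35 first. Logistic fitting of Vmax against concentration gave IC50, in triplicate.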

MMP-2 = molecular target: T2, MMP-2 (Homo sapiens, UniProt P08253); assay: MMP-2 inhibition assay (fluorogenic peptide substrate); format: biochemical; conditions: Figure 5d; fragment combination joined by linker; n.d: not detected; read-out: MMP2 IC50
T2 construct: purchased Sino Biological 10082-HNAH
T2 sequence (P08253 110-660): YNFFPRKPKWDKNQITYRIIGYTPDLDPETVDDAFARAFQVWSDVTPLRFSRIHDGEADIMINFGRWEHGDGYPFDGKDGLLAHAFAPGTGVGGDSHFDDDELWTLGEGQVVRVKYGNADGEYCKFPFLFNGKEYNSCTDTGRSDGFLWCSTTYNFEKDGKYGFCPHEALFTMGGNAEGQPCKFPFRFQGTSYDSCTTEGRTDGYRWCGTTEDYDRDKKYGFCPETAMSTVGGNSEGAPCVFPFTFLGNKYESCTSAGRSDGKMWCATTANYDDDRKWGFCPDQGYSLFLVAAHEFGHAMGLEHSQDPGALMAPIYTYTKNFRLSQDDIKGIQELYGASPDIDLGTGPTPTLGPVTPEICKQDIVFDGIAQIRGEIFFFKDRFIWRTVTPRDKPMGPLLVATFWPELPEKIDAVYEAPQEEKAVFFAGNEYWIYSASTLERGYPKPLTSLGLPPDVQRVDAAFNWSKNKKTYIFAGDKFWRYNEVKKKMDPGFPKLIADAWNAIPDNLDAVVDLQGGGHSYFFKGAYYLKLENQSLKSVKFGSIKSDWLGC
Method in brief: as §1

T1 sequence (P14780 107-707 limits assumed): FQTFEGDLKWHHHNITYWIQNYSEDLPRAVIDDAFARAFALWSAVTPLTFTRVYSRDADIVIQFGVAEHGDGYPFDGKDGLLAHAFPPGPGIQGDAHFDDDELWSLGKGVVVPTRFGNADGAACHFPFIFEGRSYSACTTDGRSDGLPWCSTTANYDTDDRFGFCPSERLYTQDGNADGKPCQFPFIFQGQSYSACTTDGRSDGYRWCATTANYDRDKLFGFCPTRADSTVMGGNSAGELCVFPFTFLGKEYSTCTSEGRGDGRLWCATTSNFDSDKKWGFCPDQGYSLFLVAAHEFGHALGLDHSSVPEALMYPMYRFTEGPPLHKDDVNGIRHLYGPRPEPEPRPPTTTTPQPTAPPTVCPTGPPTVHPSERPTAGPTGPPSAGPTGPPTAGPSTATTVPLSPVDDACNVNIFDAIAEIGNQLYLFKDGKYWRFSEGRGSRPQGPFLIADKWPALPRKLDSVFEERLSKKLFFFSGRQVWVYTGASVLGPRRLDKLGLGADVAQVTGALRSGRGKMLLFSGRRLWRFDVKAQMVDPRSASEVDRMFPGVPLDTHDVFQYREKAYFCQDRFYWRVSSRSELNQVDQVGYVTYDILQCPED

IC50 (MMP-9)	IC50 (MMP-2)	Structure (SMILES)
270 µM	149 µM	Cc1cc(=O)[nH]c(-n2nc(C)c(CCC(=O)NCCSCC(=O)NCc3c[nH]nn3)c2C)n1 [693_787 24]
58.9 µM	210 µM	Cc1cc(=O)[nH]c(-n2nc(C)c(CCC(=O)NCCNC(=O)CC(=O)/C=C/CCCCNC(=O)c3cnc4c(c3)nc(O)n4C)c2C)n1 [693_826 12]
358 µM	417 µM	Cc1cc(=O)[nH]c(-n2nc(C)c(CCC(=O)NCCSCC(=O)NCCNC(=O)c3cnc4c(c3)nc(O)n4C)c2C)n1 [693_826 24]
232 µM	110 µM	Cc1cc(=O)[nH]c(-n2nc(C)c(CCC(=O)NCCNC(=O)c3cncc(O)c3)c2C)n1 [693_828 1]
261 µM	212 µM	Cc1cc(=O)[nH]c(-n2nc(C)c(CCC(=O)NCCCCCCCCNC(=O)c3cncc(O)c3)c2C)n1 [693_828 4]
201 µM	186 µM	Cc1cc(=O)[nH]c(-n2nc(C)c(CCC(=O)NCCOCCOCCNC(=O)c3cncc(O)c3)c2C)n1 [693_828 10]
80.5 µM	59.9 µM	Cc1cc(=O)[nH]c(-n2nc(C)c(CCC(=O)NCCNC(=O)CSCCNC(=O)c3cncc(O)c3)c2C)n1 [693_828 24]

Structure (SMILES)	IC50 (MMP-9)	IC50 (MMP-2)
Cc1cc(=O)[nH]c(-n2nc(C)c(CCC(=O)NCCNC(=O)CC(=O)/C=C/CCCCNC(=O)c3cncc(O)c3)c2C)n1 [693_828 12]	14.8 µM	10 µM
